The values that follow come from patent US20260137706A1, “METHODS OF TREATING INFLAMMATORY DISEASES” (INTERLINE THERAPEUTICS, INC., priority 2023, published 2026).

Test [1] has as its target T1, GST-RIPK2 fusion protein (human RIPK2, amino acids 1-310) (Homo sapiens, UniProt O43353).
T1 construct: made in house; host or cells: baculovirus infected Sf9 cells
Kind of test: RIPK2 binding competition assay (TR-FRET, Tracer 199 displacement). As to conditions: 10 nM Tracer 199, 1 nM GST-RIPK2, read-out: RIPK2 IC50. An excerpt: The ability of selected compounds of Formula (I) to inhibit the binding of an Alexa647-labelled ATP-competitive kinase inhibitor to a GST-RIPK2 fusion protein was quantified employing the TR-FRET-based RIPK2 binding competition assay as described in the following paragraphs.
Recombinant fusion protein of N-terminal Glutathione-S-Transferase (GST) and a fragment of human RIPK2 (amino acids 1-310 of accession number 043353), expressed in baculovirus infected Sf9 cells, purified via glutathione affinity chromatography, was used as GST-RIPK2 fusion protein. Tracer 199 from Life Technologies (catalogue no. PR9115B) was used as Alexa647-labelled ATP-competitive kinase inhibitor.
For the assay, 50 nL of a 100-fold concentrated solution of each test compound in DMSO was pipetted into either a black low volume 384-well microtiter plate or a black 1536-well microtiter plate (both Greiner Bio-One, Frickenhausen, Germany), 3 μL solution of Tracer 199 (16.7 nM=>final concentration in 5 μL assay volume is 10 nM) in aqueous assay buffer (25 mM Tris/HCl pH 7.5, 10 mM magnesium chloride (MgCl2), 5 mM β-glycerophosphate, 2.5 mM dithiothreitol (DTT), 0.5 mM ethylene glycol-bis(2-aminoethylether)-N,N,N′,N′-tetraacetic acid (EGTA), 0.5 mM sodium ortho-vanadate, 0.01% (w/v) bovine serum albumin (BSA), 0.005% (w/v) Pluronic F-127 (Sigma)) were added. Then the binding competition was started by the addition of 2 μL of a solution of the GST-RIPK2 fusion protein (2.5 nM=>final conc. in the 5 μL assay volume is 1 nM) and of Anti-GST-Tb (1.25 nM=>final conc. in the 5 μL assay volume is 0.5 nM), a Lumi4®—Tb cryptate-conjugated anti-GST antibody from PerkinElmer (catalogue no 61GSTTAH), in assay buffer.
The resulting mixture was incubated 45 min at 22° C. to allow the formation of a complex between the Tracer 199, the fusion protein and Anti-GST-Tb. Subsequently, the amount of this complex was evaluated by measurement of the resonance energy transfer from the Tb-cryptate to the Tracer 199. Therefore, the fluorescence emissions at 620 nm and 665 nm after excitation at 337 nm were measured in a TR-FRET reader, e.g. a Pherastar FS (BMG Labtechnologies, Offenburg, Germany) or a Viewlux (PerkinElmer). The ratio of the emissions at 665 nm and at 620 nm was taken as the measure of the amount of the complex. The data were normalized (assay reaction without inhibitor=0% activity, all other assay components but no GST-RIPK2 fusion protein=−100% activity).
Table A1 below lists IC50 values of selected compounds of Formula (I) measured in the RIPK2 binding competition assay.
(In general: Time-resolved FRET reads energy transfer from a long-lived donor to a nearby acceptor.)

In test [2] the target is T2, binding of His-XIAP(BIR2)-avi fusion protein to GST-RIPK2 fusion protein (RIPK2/XIAP) (Homo sapiens, UniProt O43353).
T2 construct: made in house; host or cells: baculovirus infected Sf9 cells
T2 sequence (O43353 1-310 limits assumed): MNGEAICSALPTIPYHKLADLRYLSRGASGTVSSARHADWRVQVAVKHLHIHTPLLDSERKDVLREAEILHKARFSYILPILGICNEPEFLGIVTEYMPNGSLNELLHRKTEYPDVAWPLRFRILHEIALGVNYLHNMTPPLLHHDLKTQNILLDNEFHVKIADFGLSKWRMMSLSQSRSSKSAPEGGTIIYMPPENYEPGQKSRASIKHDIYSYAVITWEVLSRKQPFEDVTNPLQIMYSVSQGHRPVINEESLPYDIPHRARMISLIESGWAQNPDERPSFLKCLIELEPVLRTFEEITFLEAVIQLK
Briefly: RIPK2-XIAP binding competition PPI assay (TR-FRET). As to conditions: for Emax: read-out: PPI Amax bin; for IC50: read-out: PPI IC50 bin. An outline of the steps: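 Compounds (in DMSO, 100-fold stock) incubated 120 min at 23 °C with 1 nM GST-RIPK2 (aa 1-310) and 25 nM His-XIAP(BIR2 aa 152-231)-avi, plus anti-His-XL665 and anti-GST-Tb, in pH 7.5 Tris buffer. Read-out: 665/520 nm emission ratio. Normalized to no-inhibitor (0%) and 50 nM GSK583 (−100%); Amax binned A–D.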

Test [3] concerns NF-κB pathway (SEAP) in THP1-Dual cells. Kind of test: THP-1 Dual cell SEAP assay (L18-MDP stimulated). The test is classed as cell-based. As to conditions: Homo sapiens, THP1-Dual, read-out: NF-κB THP1 IC50 bin. In a few lines:
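THP1-Dual cells (~25,000/well) were preincubated 30 min with serially diluted compounds, then stimulated with 10 ng/mL L18-MDP (final) for 20-24 h at 37 °C. Supernatant SEAP was read with QUANTI-Blue at OD 620-655 nm after 2 h. IC50 came from non-linear fits of % inhibition versus DMSO/L18-MDP controls after media-blank subtraction.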

The mark [4] stands for this setting: RIPK2/XIAP binding competition PPI assay, Amax.
The mark [5] stands for this setting: RIPK2/XIAP binding competition PPI assay.

Where two headings read alike, the source gives them in different places.

T1 sequence (O43353 1-310): as the sequence (O43353 1-310 limits assumed) above

With `COc1cn2ncc(-c3cc(F)c(OC)c(NS(=O)(=O)c4cnn(C)c4)c3)c2nc1OC` [Example 211, N-(5-(5,6-dimethoxypyrazolo[1,5-a]pyrimidin-3-yl)-3-fluoro-2-methoxyphenyl)-1-methyl-1H-pyrazole-4-sulfonamide], the IC50 is 2.5 to 20 nM in test [1], 2.5 to 20 nM in test [2] (setting [5]) and over 1000 nM in test [3]. The Emax in test [2] (setting [4]) is over 80%.
Regarding `CC(C)(C)S(=O)(=O)c1cn2c(-c3ccc4[nH]ccc4c3)cnc2cc1OCCO` [Example 206, 2-((6-(tert-butylsulfonyl)-3-(1H-indol-5-yl)imidazo[1,2-a]pyridin-7-yl)oxy)ethan-1-ol], the IC50 was 1 to 2.5 nM in test [1], under 1 nM in test [2] (setting [5]) and 50 to 250 nM in test [3]. For the same compound, in test [2] (setting [4]), the Emax is 55 to 80%.
For the compound `COc1cc2ncc(-c3cc(F)c(OC)c(NS(=O)(=O)c4ccccc4)c3)n2cc1S(=O)(=O)C(C)(C)C` [Example 281, N-(5-(6-(tert-butylsulfonyl)-7-methoxyimidazo[1,2-a]pyridin-3-yl)-3-fluoro-2-methoxyphenyl)benzenes ulfonamide], the IC50 in test [1] is under 1 nM; in test [2] (setting [5]) it was under 1 nM; in test [3], under 50 nM. Further, the Emax in test [2] (setting [4]) was over 80%.
With `CC(C)(C)S(=O)(=O)c1cn2c(-c3cc(F)c(N)nc3F)cnc2cc1OCCCO` [Example 17, 3-((3-(6-amino-2,5-difluoropyridin-3-yl)-6-(tert-butylsulfonyl)imidazo[1,2-a]pyridin-7-yl)oxy)propan-1-ol], the IC50 lay within 1 to 2.5 nM in test [1], 1 to 2.5 nM in test [2] (setting [5]) and 50 to 250 nM in test [3]. Also, the Emax in test [2] (setting [4]) was over 80%.
On to `COc1cc2ncc(-c3cccc(NS(=O)(=O)C4CCOC4)c3)n2cc1S(=O)(=O)C(C)(C)C` (stereo not drawn) [Example 148, N-(3-(6-(tert-butylsulfonyl)-7-methoxyimidazo[1,2-a]pyridin-3-yl)phenyl)tetrahydrofuran-3-sulfonamide], for which the IC50 in test [1] is 2.5 to 20 nM; in test [2] (setting [5]) it was 2.5 to 20 nM; in test [3] it was over 1000 nM. For the same compound, in test [2] (setting [4]), the Emax was over 80%.
As for `COc1cc2ncc(-c3cc(F)c(OC)c(NS(=O)(=O)c4cnn(CCO)c4)c3)n2cc1C(F)(F)F` [Example 304, N-(3-fluoro-2-methoxy-5-(7-methoxy-6-(trifluoromethyl)imidazo[1,2-a]pyridin-3-yl)phenyl)-1-(2-hydroxyethyl)-1H-pyrazole-4-sulfonamide], the IC50 is 2.5 to 20 nM in test [1], 2.5 to 20 nM in test [2] (setting [5]) and over 1000 nM in test [3]. The Emax in test [2] (setting [4]) is over 80%.
As for `COc1cc2ncc(-c3cc(F)c(OC)c(NS(=O)(=O)CC4CC4)c3)n2cc1S(=O)(=O)C(C)(C)C` [Example 159, N-(5-(6-(tert-butylsulfonyl)-7-methoxyimidazo[1,2-a]pyridin-3-yl)-3-fluoro-2-methoxyphenyl)-1-cyclopropylmethanesulfonamide], the IC50 in test [1] is under 1 nM; in test [2] (setting [5]), under 1 nM; in test [3], under 50 nM. The Emax in test [2] (setting [4]) was over 80%.
As to `COc1cc2ncc(-c3ccc4oc(N)nc4c3)n2cc1S(=O)(=O)C(C)(C)C` [Example 104, 5-(6-(tert-butylsulfonyl)-7-methoxyimidazo[1,2-a]pyridin-3-yl)benzo[d]oxazol-2-amine], the IC50 is over 20 nM in test [1], over 20 nM in test [2] (setting [5]) and over 1000 nM in test [3]. The Emax in test [2] (setting [4]) was 30 to 55%.
With `CCCS(=O)(=O)Nc1cc(-c2cnc3cc(OC)c(S(=O)(=O)C(C)(C)CO)cn23)cc(F)c1OC` [Example 126, N-(3-fluoro-5-(6-((1-hydroxy-2-methylpropan-2-yl)sulfonyl)-7-methoxyimidazo[1,2-a]pyridin-3-yl)-2-methoxyphenyl)propane-1-sulfonamide], the IC50 in test [1] is under 1 nM; in test [2] (setting [5]) it was under 1 nM; in test [3] it was under 50 nM. Moreover, the Emax in test [2] (setting [4]) is over 80%.
As to `COc1cc2ncc(-c3cc4cn[nH]c4cn3)n2cc1S(=O)(=O)C(C)(C)C` [Example 11, 5-(6-(tert-butylsulfonyl)-7-methoxyimidazo[1,2-a]pyridin-3-yl)-1H-pyrazolo[3,4-c]pyridine], the IC50 in test [1] was 2.5 to 20 nM; in test [2] (setting [5]) it was over 20 nM; in test [3] it was under 50 nM. For the same compound, the Emax in test [2] is under 30%.
For the compound `CCC(C)(C)S(=O)(=O)c1cn2c(-c3cc(F)c(N)nc3F)cnc2cc1OC` [Example 69, 3,6-difluoro-5-(7-methoxy-6-(tert-pentylsulfonyl)imidazo[1,2-a]pyridin-3-yl)pyridin-2-amine], the IC50 in test [1] was in the range of 2.5 to 20 nM; in test [2] (setting [5]), 2.5 to 20 nM; in test [3], 250 to 1000 nM. In addition, in test [2] (setting [4]), the Emax was over 80%.
For the compound `CC(C)(C)S(=O)(=O)c1cn2c(-c3cnc4ccnn4c3)cnc2cc1OCCO` [Example 221, 2-((6-(tert-butylsulfonyl)-3-(pyrazolo[1,5-a]pyrimidin-6-yl)imidazo[1,2-a]pyridin-7-yl)oxy)ethan-1-ol], the IC50 in test [1] is over 20 nM; in test [2] (setting [5]), over 20 nM; in test [3], over 1000 nM. In addition, the Emax in test [2] (setting [4]) was over 80%.
For the compound `COc1cc2ncc(-c3cc(F)nc(NCCCO)c3)n2cc1C(F)(F)F` [Example 1, 3-((6-Fluoro-4-(7-methoxy-6-(trifluoromethyl)imidazo[1,2-a]pyridin-3-yl)pyridin-2-yl)amino)propan-1-ol], the IC50 in test [1] was 2.5 to 20 nM; in test [2] (setting [5]) it was over 20 nM; in test [3] it was 50 to 250 nM. Besides, the Emax in test [2] (setting [4]) is under 30%.
For `COc1ccn2ncc(-c3cc(N)cc(F)c3)c2n1` [Example 80, 3-fluoro-5-(5-methoxypyrazolo[1,5-a]pyrimidin-3-yl)aniline], in that order: over 20 nM, over 20 nM, over 1000 nM and under 30%.
Turning to `CCOc1cc2ncc(-c3cc4cc[nH]c4nc3F)n2cc1S(=O)(=O)C(C)C` [Example 238, 7-ethoxy-3-(6-fluoro-1H-pyrrolo[2,3-b]pyridin-5-yl)-6-(isopropylsulfonyl) imidazo[1,2-a]pyridine], the concentration for half-maximal inhibition (IC50) in test [1] was 1 to 2.5 nM; in test [2] (setting [5]) it was 1 to 2.5 nM; in test [3] it was 50 to 250 nM. The Emax in test [2] (setting [4]) was over 80%.
Take `COc1cc2ncc(-c3cnc4c(c3)OCCN4)n2cc1S(=O)(=O)C(C)(C)C` [Example 84, 7-(6-(tert-butylsulfonyl)-7-methoxyimidazo[1,2-a]pyridin-3-yl)-3,4-dihydro-2H-pyrido[3,2-b][1,4]oxazine]: the IC50 is over 20 nM in test [1], over 20 nM in test [2] (setting [5]) and over 1000 nM in test [3]. The Emax in test [2] (setting [4]) fell in the range of 55 to 80%.
`COc1cc2nc(Cl)c(-c3ccc(N)nc3F)n2cc1S(=O)(=O)C(C)(C)C` [Example 10, 5-(6-(tert-butylsulfonyl)-2-chloro-7-methoxyimidazo[1,2-a]pyridin-3-yl)-6-fluoropyridin-2-amine]: the IC50 in test [1] and in test [2] (setting [5]) was over 20 nM each time. In test [2] (setting [4]), the Emax was over 80%.
For `CC(C)(C)C(C)(O)c1cn2c(-c3cc(F)c(N)nc3F)cnc2cc1OCCO` (stereo not drawn) [Example 193, 2-(3-(6-amino-2,5-difluoropyridin-3-yl)-7-(2-hydroxyethoxy)imidazo[1,2-a]pyridin-6-yl)-3,3-dimethylbutan-2-ol], the IC50 in test [1] was 2.5 to 20 nM. Also, the Emax in test [2] (setting [4]) is over 80%.

For orientation: IC50 means the concentration that gives 50% inhibition.
